Like-named read-outs stand apart in the source and are kept apart here. Peptide text beside a SMILES is read from it.
Assays:
HIV-1 = settings: H9 cells; for Day 10 RT HIV-1 (1:5): supernatant diluted 5-fold; for HIV-1 infection, result in words: summary of Experiments 1-5
Description: In this example, the methods that were used to analyze the ability of various tripeptides to inhibit HIV-1, HIV-2, and SIV replication are disclosed. In Experiments 1 and 2, approximately 200,000 H9 cells were infected with HIV-1, HIV-2 or SIV at 25 TCID50 to test the inhibitory effect of the following synthesized tripeptides LKA-NH2, ILK-NH2, GPQ-NH2, GHK-NH2, GKG-NH2, ACQ-NH2, CQG-NH2, ARV-NH2, KAR-NH2, HKA-NH2, GAT-NH2, KAL-NH2, and GPG-NH2. Accordingly, the H9 cells were resuspended with or without the different peptides (approximately 100 μM) in 1 ml of RPMI 1640 medium supplemented with 10% (v/v) heat-inactivated fetal bovine serum (FBS), penicillin (100 u/ml), and streptomycin (100 u/ml), all available through GIBCO, and Polybrene (2 μg/ml), available through Sigma. Thereafter, viruses were added at 25 TCID50 in a volume of 20-30μl. Cells were incubated with virus at 37° C. for 1 hr then pelleted at 170×g for 7 minutes. The cells were then washed three times in RPMI medium without peptides at room temperature and pelleted at 170×g for 7 minutes, as above. After the final wash, the cells were resuspended in RPMI culture medium containing the peptides in a 24-well plate (Costar corporation) and were kept at 37° C. in 5% CO2 with humidity.
Culture supernatants were collected and analyzed when the medium was changed at 4, 7, 10, and 14 days post infection. To monitor the replication of virus, reverse transcriptase (RT) activity in the supernatants was assayed using a commercially available Lenti-RT activity kit. (Cavidi Tech, Uppsala, Sweden). The amount of RT was determined with the aid of a regression line of standards. The results are presented as absorbance values (OD) and higher absorbance indicates a higher protein concentration and greater viral infection. Syncytium formation was also monitored by microscopic examination.
In Experiment 3, (Table 4), approximately 200,000 H9 cells were infected with HIV-1, HIV-2 or SIV at 25 TCID50 to test the inhibitory effect of different concentrations of peptides GPG-NH2, GKG-NH2 and CQG-NH2 and combinations of these peptides (the indicated concentration corresponds to the concentration of each tripeptide). As above, H9 cells were resuspended with or without the different peptides at varying concentrations in 1 ml of RPMI 1640 medium supplemented with 10% (v/v) heat-inactivated fetal bovine serum (FBS), penicillin (100 u/ml), and streptomycin (100 u/ml), and Polybrene (2 μg/ml). Thereafter, viruses were added at 25 TCID50 in a volume of 20-30 μl. Cells were incubated with the indicated virus at 37° C. for 1 hr then pelleted at 170×g for 7 minutes. The cells were then washed three times in RPMI medium without peptides at room temperature and pelleted at 170×g for 7 minutes, as above. After the final wash, the cells were resuspended in RPMI culture medium containing the peptides in a 24-well plate (Costar corporation) and kept at 37° C. in 5% CO2 with humidity.
Culture supernatants were collected when the medium was changed at 4, 7, and 11 days post infection. As above, the replication of each virus was monitored by detecting reverse transcriptase (RT) activity in the supernatants using the Lenti-RT activity kit. (Cavidi Tech). The amount of RT was determined with the aid of a regression line of standards. The results are presented as absorbance values (OD) and higher absorbance indicates a higher protein concentration and greater viral infection.
In Experiment 4, (Table 5) approximately 200,000 H9 cells were infected with HIV-1 at 25 TCID50 to test the inhibitory effect of different concentrations of peptides GPG-NH2, GKG-NH2 and CQG-NH2 and combinations of these peptides (the indicated concentration corresponds to the total concentration of tripeptide).

HIV-2 = HIV-2 infectivity assay in H9 cells, RT activity in supernatant; format: cell-based; settings: for HIV-2 infection, result in words: summary of Experiments 1-3
SIV = SIV infectivity assay in H9 cells, RT activity in supernatant; format: cell-based; settings: for SIV infection, result in words: summary of Experiments 1-3
[1] = Experiment 3, 5 μM (of each tripeptide)
[2] = Experiment 3, 20 μM (of each tripeptide)
[3] = Experiment 4, 5 μM (total concentration of tripeptide)
[4] = Experiment 4, 15 μM (total concentration of tripeptide)

## NCC(=O)N1CCC[C@H]1C(=O)NCC(N)=O [GPG-NH2, glycyl-prolyl-glycine amide] (H-Gly-Pro-Gly-NH2)
HIV-1; Experiment 1, 100 μM
  Day 7 RT HIV-1: 0.068 OD
  Day 10 RT HIV-1: 0.074 OD
HIV-1; Experiment 2, 100 μM
  Day 7 RT HIV-1: 0.090 OD
  Day 10 RT HIV-1: 0.143 OD
HIV-1; [1]
  Day 7 RT HIV-1: 1.527 OD
  Day 10 RT HIV-1: 2.398 OD
HIV-1; [2]
  Day 7 RT HIV-1: 0.239 OD
  Day 10 RT HIV-1: 0.692 OD
HIV-1; [3]
  Day 7 RT HIV-1: 2.970 OD
  Day 10 RT HIV-1 (1:5): 1.107 OD
HIV-1; [4]
  Day 7 RT HIV-1: 0.894 OD
  Day 10 RT HIV-1 (1:5): 0.095 OD
HIV-1; Experiment 4, 45 μM
  Day 7 RT HIV-1: 0.177 OD
  Day 10 RT HIV-1 (1:5): 0.034 OD
HIV-1; Experiment 4, 100 μM
  Day 7 RT HIV-1: 0.150 OD
  Day 10 RT HIV-1 (1:5): 0.033 OD
HIV-1
  HIV-1 infection, result in words: inhibited and/or prevented HIV-1 infection
HIV-2; Experiment 1, 100 μM
  Day 7 RT HIV-2: 0.735 OD
  Day 10 RT HIV-2: 0.145 OD
HIV-2; Experiment 2, 100 μM
  Day 7 RT HIV-2: 0.093 OD
  Day 10 RT HIV-2: 0.575 OD
HIV-2; [1]
  Day 7 RT HIV-2: 1.735 OD
  Day 10 RT HIV-2: 2.329 OD
HIV-2; [2]
  Day 7 RT HIV-2: 0.252 OD
  Day 10 RT HIV-2: 1.305 OD
HIV-2
  HIV-2 infection, result in words: inhibit or prevent HIV-2 and SIV infection
SIV; Experiment 1, 100 μM
  Day 7 RT SIV: 0.138 OD
  Day 10 RT SIV: 0.103 OD
SIV; Experiment 2, 100 μM
  Day 7 RT SIV: 0.067 OD
  Day 10 RT SIV: 0.139 OD
SIV; [1]
  Day 7 RT SIV: 0.753 OD
  Day 10 RT SIV: 2.201 OD
SIV; [2]
  Day 7 RT SIV: 0.197 OD
  Day 10 RT SIV: 0.779 OD
SIV
  SIV infection, result in words: inhibit or prevent HIV-2 and SIV infection

## cystyl-glutaminyl-glycine amide [CQG-NH2]
HIV-1; Experiment 1, 100 μM
  Day 7 RT HIV-1: 0.091 OD
  Day 10 RT HIV-1: 0.108 OD
HIV-1; Experiment 2, 100 μM
  Day 7 RT HIV-1: 0.143 OD
  Day 10 RT HIV-1: 1.546 OD
HIV-1; [1]
  Day 7 RT HIV-1: 1.547 OD
  Day 10 RT HIV-1: 2.028 OD
HIV-1; [2]
  Day 7 RT HIV-1: 1.578 OD
  Day 10 RT HIV-1: 1.484 OD
HIV-1; Experiment 3, 100 μM
  Day 7 RT HIV-1: 1.520 OD
  Day 10 RT HIV-1: 2.014 OD
HIV-1; [3]
  Day 7 RT HIV-1: 2.991 OD
  Day 10 RT HIV-1 (1:5): 1.459 OD
HIV-1; [4]
  Day 7 RT HIV-1: 2.726 OD
  Day 10 RT HIV-1 (1:5): 1.413 OD
HIV-1; Experiment 4, 45 μM
  Day 7 RT HIV-1: 3.124 OD
  Day 10 RT HIV-1 (1:5): 1.364 OD
HIV-1
  HIV-1 infection, result in words: inhibited and/or prevented HIV-1 infection
HIV-2; Experiment 1, 100 μM
  Day 7 RT HIV-2: 0.217 OD
  Day 10 RT HIV-2: 0.296 OD
HIV-2; Experiment 2, 100 μM
  Day 7 RT HIV-2: 1.241 OD
  Day 10 RT HIV-2: 2.501 OD
HIV-2; [1]
  Day 7 RT HIV-2: 1.760 OD
  Day 10 RT HIV-2: 2.466 OD
HIV-2; [2]
  Day 7 RT HIV-2: 1.748 OD
  Day 10 RT HIV-2: 2.721 OD
HIV-2; Experiment 3, 100 μM
  Day 7 RT HIV-2: 1.715 OD
  Day 10 RT HIV-2: 2.815 OD
HIV-2
  HIV-2 infection, result in words: inhibit or prevent HIV-2 and SIV infection
SIV; Experiment 1, 100 μM
  Day 7 RT SIV: 0.747 OD
  Day 10 RT SIV: 0.110 OD
SIV; Experiment 2, 100 μM
  Day 7 RT SIV: 0.120 OD
  Day 10 RT SIV: 1.761 OD
SIV; [1]
  Day 7 RT SIV: 1.159 OD
  Day 10 RT SIV: 2.821 OD
SIV; [2]
  Day 7 RT SIV: 0.615 OD
  Day 10 RT SIV: 2.158 OD
SIV; Experiment 3, 100 μM
  Day 7 RT SIV: 0.795 OD
  Day 10 RT SIV: 2.286 OD
SIV
  SIV infection, result in words: inhibit or prevent HIV-2 and SIV infection

## NCCCC[C@H](NC(=O)CN)C(=O)NCC(N)=O [GKG-NH2, glycyl-lysyl-glycine amide] (H-Gly-Lys-Gly-NH2)
HIV-1; Experiment 1, 100 μM
  Day 7 RT HIV-1: 0.080 OD
  Day 10 RT HIV-1: 0.074 OD
HIV-1; Experiment 2, 100 μM
  Day 7 RT HIV-1: 0.145 OD
  Day 10 RT HIV-1: 0.345 OD
HIV-1; [1]
  Day 7 RT HIV-1: 1.587 OD
  Day 10 RT HIV-1: 1.683 OD
HIV-1; [2]
  Day 7 RT HIV-1: 1.616 OD
  Day 10 RT HIV-1: 2.036 OD
HIV-1; Experiment 3, 100 μM
  Day 7 RT HIV-1: 0.823 OD
  Day 10 RT HIV-1: 1.520 OD
HIV-1; [3]
  Day 7 RT HIV-1: 3.303 OD
  Day 10 RT HIV-1 (1:5): 1.287 OD
HIV-1; [4]
  Day 7 RT HIV-1: 3.551 OD
  Day 10 RT HIV-1 (1:5): 1.530 OD
HIV-1; Experiment 4, 45 μM
  Day 7 RT HIV-1: 3.126 OD
  Day 10 RT HIV-1 (1:5): 0.410 OD
HIV-1
  HIV-1 infection, result in words: inhibited and/or prevented HIV-1 infection
HIV-2; Experiment 1, 100 μM
  Day 7 RT HIV-2: 0.160 OD
  Day 10 RT HIV-2: 0.147 OD
HIV-2; Experiment 2, 100 μM
  Day 7 RT HIV-2: 0.283 OD
  Day 10 RT HIV-2: 1.637 OD
HIV-2; [1]
  Day 7 RT HIV-2: 1.769 OD
  Day 10 RT HIV-2: 2.510 OD
HIV-2; [2]
  Day 7 RT HIV-2: 1.759 OD
  Day 10 RT HIV-2: 2.646 OD
HIV-2; Experiment 3, 100 μM
  Day 7 RT HIV-2: 0.828 OD
  Day 10 RT HIV-2: 1.947 OD
HIV-2
  HIV-2 infection, result in words: inhibit or prevent HIV-2 and SIV infection
SIV; Experiment 1, 100 μM
  Day 7 RT SIV: 0.421 OD
  Day 10 RT SIV: 0.099 OD
SIV; Experiment 2, 100 μM
  Day 7 RT SIV: 0.116 OD
  Day 10 RT SIV: 0.204 OD
SIV; [1]
  Day 7 RT SIV: 0.271 OD
  Day 10 RT SIV: 1.709 OD
SIV; [2]
  Day 7 RT SIV: 1.531 OD
  Day 10 RT SIV: 2.482 OD
SIV; Experiment 3, 100 μM
  Day 7 RT SIV: 1.005 OD
  Day 10 RT SIV: 1.382 OD
SIV
  SIV infection, result in words: inhibit or prevent HIV-2 and SIV infection
